# Reference: ChEMBL document CHEMBL5385861, “Development of novel hydrazidoarylaminopyrimidine-based BTK/FLT3 dual inhibitors with potent in vivo anti-hematological malignancies effects” (Eur J Med Chem, 2023)
# Active and inactive are the calls of the source. The calls are words filed in the database; no cut-off is given here.
# What was measured:
# [1] = molecular target: Tyrosine-protein kinase Blk (Homo sapiens) (UniProt P51451); test: Inhibition of BLK (unknown origin) at 0.2 uM incubated for 40 mins by radiometric kinase assay relative to control
# Sequence of Tyrosine-protein kinase Blk (Homo sapiens) (P51451 2-505 limits assumed): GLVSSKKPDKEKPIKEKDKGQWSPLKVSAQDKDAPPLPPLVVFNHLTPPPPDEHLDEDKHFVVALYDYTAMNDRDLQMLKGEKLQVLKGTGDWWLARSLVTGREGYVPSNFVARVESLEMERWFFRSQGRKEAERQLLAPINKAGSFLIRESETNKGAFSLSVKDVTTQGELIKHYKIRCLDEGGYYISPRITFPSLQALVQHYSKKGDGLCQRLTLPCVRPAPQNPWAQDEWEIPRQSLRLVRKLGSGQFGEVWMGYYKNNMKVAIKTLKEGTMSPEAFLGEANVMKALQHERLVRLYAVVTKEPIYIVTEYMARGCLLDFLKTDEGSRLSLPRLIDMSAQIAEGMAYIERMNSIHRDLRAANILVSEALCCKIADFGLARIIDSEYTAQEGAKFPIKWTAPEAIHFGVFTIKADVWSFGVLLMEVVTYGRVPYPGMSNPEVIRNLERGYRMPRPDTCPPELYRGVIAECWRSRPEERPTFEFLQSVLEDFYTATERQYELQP
# [2] = molecular target: Cytoplasmic tyrosine-protein kinase BMX (Homo sapiens) (UniProt P51813); test: Inhibition of BMX (unknown origin) at 0.2 uM incubated for 40 mins by radiometric kinase assay relative to control
# [3] = molecular target: RAF proto-oncogene serine/threonine-protein kinase (Homo sapiens) (UniProt P04049); test: Inhibition of c-RAF (unknown origin) at 0.2 uM incubated for 40 mins by radiometric kinase assay relative to control
# [4] = molecular target: Death-associated protein kinase 1 (Homo sapiens) (UniProt P53355); test: Inhibition of DAPK1 (unknown origin) at 0.2 uM incubated for 40 mins by radiometric kinase assay relative to control
# Sequence of Death-associated protein kinase 1 (Homo sapiens) (P53355 whole entry, looked up): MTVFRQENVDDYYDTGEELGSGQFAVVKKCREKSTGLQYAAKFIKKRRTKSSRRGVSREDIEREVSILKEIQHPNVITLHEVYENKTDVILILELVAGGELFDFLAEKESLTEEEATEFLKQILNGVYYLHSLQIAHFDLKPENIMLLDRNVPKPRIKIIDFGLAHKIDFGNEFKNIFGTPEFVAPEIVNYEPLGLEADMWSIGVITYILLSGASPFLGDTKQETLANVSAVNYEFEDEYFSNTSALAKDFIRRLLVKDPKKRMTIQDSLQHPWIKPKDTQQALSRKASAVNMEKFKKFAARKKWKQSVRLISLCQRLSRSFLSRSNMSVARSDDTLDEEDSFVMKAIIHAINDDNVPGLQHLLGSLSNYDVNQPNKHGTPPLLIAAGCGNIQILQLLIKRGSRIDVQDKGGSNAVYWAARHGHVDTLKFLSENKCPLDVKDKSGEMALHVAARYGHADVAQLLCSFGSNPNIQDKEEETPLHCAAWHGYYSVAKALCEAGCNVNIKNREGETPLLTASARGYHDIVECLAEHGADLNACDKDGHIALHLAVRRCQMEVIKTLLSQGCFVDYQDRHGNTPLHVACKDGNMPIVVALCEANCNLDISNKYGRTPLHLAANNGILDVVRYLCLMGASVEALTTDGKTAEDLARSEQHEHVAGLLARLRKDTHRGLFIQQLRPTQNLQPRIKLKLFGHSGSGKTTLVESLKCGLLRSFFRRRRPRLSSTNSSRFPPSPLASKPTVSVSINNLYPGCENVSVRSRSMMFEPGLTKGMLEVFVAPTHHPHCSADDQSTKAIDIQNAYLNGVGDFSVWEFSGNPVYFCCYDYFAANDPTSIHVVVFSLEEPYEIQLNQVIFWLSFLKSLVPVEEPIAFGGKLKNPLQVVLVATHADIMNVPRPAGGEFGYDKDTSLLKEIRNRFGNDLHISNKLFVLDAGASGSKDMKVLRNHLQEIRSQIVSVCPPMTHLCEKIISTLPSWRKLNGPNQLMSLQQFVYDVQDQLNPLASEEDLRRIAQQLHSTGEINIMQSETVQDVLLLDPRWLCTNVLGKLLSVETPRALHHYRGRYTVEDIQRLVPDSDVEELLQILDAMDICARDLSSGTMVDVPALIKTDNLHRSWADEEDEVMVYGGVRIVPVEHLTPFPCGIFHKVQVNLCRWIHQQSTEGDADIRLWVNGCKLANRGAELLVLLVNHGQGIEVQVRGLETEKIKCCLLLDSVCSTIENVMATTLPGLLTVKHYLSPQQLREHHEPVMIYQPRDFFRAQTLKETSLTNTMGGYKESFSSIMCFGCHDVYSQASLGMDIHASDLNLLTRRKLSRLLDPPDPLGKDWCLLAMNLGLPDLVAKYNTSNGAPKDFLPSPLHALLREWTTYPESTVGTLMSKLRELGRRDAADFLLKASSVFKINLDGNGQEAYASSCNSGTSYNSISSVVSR
# [5] = molecular target: Epidermal growth factor receptor (Homo sapiens) (UniProt P00533); test: Inhibition of EGFR (unknown origin) at 0.2 uM incubated for 40 mins by radiometric kinase assay relative to control
# [6] = molecular target: Vascular endothelial growth factor receptor 1 (Homo sapiens) (UniProt P17948); test: Inhibition of FLT1 (unknown origin) at 0.2 uM incubated for 40 mins by radiometric kinase assay relative to control
# [7] = molecular target: Macrophage colony-stimulating factor 1 receptor (Homo sapiens) (UniProt P07333); test: Inhibition of Fms (unknown origin) at 0.2 uM incubated for 40 mins by radiometric kinase assay relative to control
# Sequence of Macrophage colony-stimulating factor 1 receptor (Homo sapiens) (P07333 whole entry): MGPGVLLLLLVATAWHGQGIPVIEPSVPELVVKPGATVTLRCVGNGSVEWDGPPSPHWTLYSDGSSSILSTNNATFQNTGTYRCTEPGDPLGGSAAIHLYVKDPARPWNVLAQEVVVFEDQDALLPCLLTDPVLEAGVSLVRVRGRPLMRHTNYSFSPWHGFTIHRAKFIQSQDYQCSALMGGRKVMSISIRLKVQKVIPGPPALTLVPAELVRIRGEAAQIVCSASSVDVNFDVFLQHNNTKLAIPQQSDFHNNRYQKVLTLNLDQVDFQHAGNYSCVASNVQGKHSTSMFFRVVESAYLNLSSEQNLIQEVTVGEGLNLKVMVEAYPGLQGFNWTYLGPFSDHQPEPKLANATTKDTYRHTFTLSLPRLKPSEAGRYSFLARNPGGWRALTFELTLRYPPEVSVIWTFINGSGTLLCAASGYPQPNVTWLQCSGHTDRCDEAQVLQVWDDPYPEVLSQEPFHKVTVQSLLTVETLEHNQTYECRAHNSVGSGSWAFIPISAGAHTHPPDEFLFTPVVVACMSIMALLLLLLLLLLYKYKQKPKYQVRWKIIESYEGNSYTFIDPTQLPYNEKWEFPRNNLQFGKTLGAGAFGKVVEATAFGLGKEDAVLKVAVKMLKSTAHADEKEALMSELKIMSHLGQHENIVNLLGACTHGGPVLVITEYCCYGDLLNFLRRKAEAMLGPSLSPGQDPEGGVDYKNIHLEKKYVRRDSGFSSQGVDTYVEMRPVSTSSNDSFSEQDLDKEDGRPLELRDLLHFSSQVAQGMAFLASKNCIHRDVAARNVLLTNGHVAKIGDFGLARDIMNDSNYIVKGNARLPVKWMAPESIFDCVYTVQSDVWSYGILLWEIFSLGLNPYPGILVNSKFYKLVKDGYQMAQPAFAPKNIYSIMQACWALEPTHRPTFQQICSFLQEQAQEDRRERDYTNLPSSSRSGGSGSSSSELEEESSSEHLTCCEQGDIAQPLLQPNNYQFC
# [8] = molecular target: Tyrosine-protein kinase HCK (Homo sapiens) (UniProt P08631); test: Inhibition of HCK (unknown origin) at 0.2 uM incubated for 40 mins by radiometric kinase assay relative to control
# [9] = molecular target: Inhibitor of nuclear factor kappa-B kinase subunit alpha (Homo sapiens) (UniProt O15111); test: Inhibition of IKKalpha (unknown origin) at 0.2 uM incubated for 40 mins by radiometric kinase assay relative to control
# [10] = molecular target: MAP kinase-activated protein kinase 2 (Homo sapiens) (UniProt P49137); test: Inhibition of MAPKAP-K2 (unknown origin) at 0.2 uM incubated for 40 mins by radiometric kinase assay relative to control
# [11] = molecular target: Serine/threonine-protein kinase mTOR (Homo sapiens) (UniProt P42345); test: Inhibition of mTOR (unknown origin) at 0.2 uM incubated for 40 mins by radiometric kinase assay relative to control
# [12] = molecular target: Serine/threonine-protein kinase PLK1 (Homo sapiens) (UniProt P53350); test: Inhibition of PLK1 (unknown origin) at 0.2 uM incubated for 40 mins by radiometric kinase assay relative to control
# Sequence of Serine/threonine-protein kinase PLK1 (Homo sapiens) (P53350 whole entry): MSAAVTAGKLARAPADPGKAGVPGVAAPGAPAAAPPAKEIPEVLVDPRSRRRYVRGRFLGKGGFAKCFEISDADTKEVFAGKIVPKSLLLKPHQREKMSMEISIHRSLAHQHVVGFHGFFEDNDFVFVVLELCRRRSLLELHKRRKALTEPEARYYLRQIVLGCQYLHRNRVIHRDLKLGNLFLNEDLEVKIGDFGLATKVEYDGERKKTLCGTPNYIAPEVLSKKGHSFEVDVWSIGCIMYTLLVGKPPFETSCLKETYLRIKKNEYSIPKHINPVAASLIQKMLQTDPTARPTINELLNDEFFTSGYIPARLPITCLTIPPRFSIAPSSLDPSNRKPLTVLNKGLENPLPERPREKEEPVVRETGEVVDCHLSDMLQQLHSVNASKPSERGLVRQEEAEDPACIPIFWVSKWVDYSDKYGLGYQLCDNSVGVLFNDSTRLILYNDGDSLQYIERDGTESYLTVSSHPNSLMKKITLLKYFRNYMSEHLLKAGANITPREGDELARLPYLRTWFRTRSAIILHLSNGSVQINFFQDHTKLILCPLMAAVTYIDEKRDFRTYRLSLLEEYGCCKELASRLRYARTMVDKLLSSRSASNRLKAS
# [13] = molecular target: Serine/threonine-protein kinase PLK2 (Homo sapiens) (UniProt Q9NYY3); test: Inhibition of SNK (unknown origin) at 0.2 uM incubated for 40 mins by radiometric kinase assay relative to control
# Sequence of Serine/threonine-protein kinase PLK2 (Homo sapiens) (Q9NYY3 whole entry, looked up): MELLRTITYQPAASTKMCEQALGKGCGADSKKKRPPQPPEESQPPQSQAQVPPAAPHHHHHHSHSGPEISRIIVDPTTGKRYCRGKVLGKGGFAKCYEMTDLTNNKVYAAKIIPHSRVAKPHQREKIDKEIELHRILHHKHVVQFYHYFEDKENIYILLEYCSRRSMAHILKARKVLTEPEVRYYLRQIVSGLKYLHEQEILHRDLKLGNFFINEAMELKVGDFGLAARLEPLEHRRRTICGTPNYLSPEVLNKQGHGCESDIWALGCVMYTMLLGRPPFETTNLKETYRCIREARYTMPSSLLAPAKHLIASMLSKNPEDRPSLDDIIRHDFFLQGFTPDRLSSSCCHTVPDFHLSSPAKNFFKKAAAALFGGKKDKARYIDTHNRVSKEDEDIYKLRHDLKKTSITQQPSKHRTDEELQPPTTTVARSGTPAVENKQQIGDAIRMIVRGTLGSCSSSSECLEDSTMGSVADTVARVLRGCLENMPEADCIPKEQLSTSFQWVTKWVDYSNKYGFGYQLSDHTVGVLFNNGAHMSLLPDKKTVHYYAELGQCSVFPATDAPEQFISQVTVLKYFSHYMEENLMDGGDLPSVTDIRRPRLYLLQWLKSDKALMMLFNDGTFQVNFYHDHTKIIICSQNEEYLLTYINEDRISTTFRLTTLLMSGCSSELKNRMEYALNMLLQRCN
# [14] = molecular target: Mitogen-activated protein kinase kinase kinase 7 (Homo sapiens) (UniProt O43318); test: Inhibition of TAK1 (unknown origin) at 0.2 uM incubated for 40 mins by radiometric kinase assay relative to control
# Sequence of Mitogen-activated protein kinase kinase kinase 7 (Homo sapiens) (O43318 whole entry): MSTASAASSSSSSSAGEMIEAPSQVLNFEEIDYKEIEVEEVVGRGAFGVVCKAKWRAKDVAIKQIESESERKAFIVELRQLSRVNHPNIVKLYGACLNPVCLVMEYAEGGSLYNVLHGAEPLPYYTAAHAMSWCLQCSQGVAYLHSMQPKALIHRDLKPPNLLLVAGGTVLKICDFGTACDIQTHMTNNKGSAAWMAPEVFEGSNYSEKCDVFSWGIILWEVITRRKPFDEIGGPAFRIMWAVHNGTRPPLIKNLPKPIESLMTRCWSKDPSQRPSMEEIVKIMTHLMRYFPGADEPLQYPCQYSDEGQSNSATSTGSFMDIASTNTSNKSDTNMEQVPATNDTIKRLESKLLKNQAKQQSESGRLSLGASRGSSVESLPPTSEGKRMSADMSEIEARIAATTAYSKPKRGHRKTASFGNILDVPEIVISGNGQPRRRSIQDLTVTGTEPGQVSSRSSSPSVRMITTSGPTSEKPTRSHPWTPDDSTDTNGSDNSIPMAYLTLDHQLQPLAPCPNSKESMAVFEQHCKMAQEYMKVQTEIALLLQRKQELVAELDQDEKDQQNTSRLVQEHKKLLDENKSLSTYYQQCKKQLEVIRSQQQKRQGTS
# JeKo-1 [15] = test: Potency index, ratio of spebrutinib IC50 to test compound IC50 for antiproliferative activity against human JeKo-1 cells; type: functional
# MV4-11 [16] = test: Potency index, ratio of spebrutinib IC50 to test compound IC50 for antiproliferative activity against human MV4-11 cells; type: functional
# MOLT-4 = test: Potency index, ratio of spebrutinib IC50 to test compound IC50 for antiproliferative activity against human MOLT-4 cells; type: functional
# JeKo-1 [17] = test: Potency index, ratio of sorafenib IC50 to test compound IC50 for antiproliferative activity against human JeKo-1 cells; type: functional
# [18] = molecular target: Signal transducer and activator of transcription 5A (Homo sapiens) (UniProt P42229); test: Inhibition of STAT5 phosphorylation in human JeKo-1 cells incubated for 72 hrs by Western blot analysis; type: cell-based; settings: dose 30-750 nM
# JeKo-1 [19] = test: Induction of apoptosis in human JeKo-1 cells assessed as viable cells at 30 nM incubated for 72 hrs by Annexin VFITC/PI staining based flow cytometry analysis (reference value: 94.81%); type: functional; settings: read-out: Activity
# JeKo-1 [20] = test: Induction of apoptosis in human JeKo-1 cells assessed as late apoptotic cells at 150 nM incubated for 72 hrs by Annexin VFITC/PI staining based flow cytometry analysis (reference value: 1.42%); type: functional
# JeKo-1 [21] = test: Induction of apoptosis in human JeKo-1 cells assessed as necrotic cells at 150 nM incubated for 72 hrs by Annexin VFITC/PI staining based flow cytometry analysis (reference value: 0.67%); type: functional
# JeKo-1 [22] = test: Induction of apoptosis in human JeKo-1 cells assessed as viable cells at 750 nM incubated for 72 hrs by Annexin VFITC/PI staining based flow cytometry analysis (reference value: 94.81%); type: functional; settings: Homo sapiens, JeKo-1, read-out: Activity
# JeKo-1 [23] = test: Induction of apoptosis in human JeKo-1 cells assessed as downregulation of Bcl-2 protein expression at 30 to 750 nM incubated for 72 hrs by Western blot analysis; type: functional, cell-based; settings: dose 30-750 nM
# JeKo-1 [24] = test: Induction of apoptosis in human JeKo-1 cells assessed as upregulation of cleaved caspase-3 protein expression incubated for 72 hrs by Western blot analysis; type: functional, cell-based; settings: dose 30-750 nM
# [25] = Metabolic stability in human liver microsome assessed as intrinsic clearance preincubated with compound for 5 mins followed by NADPH addition and measured upto 60 mins by LC-MS/MS analysis; type: ADME; settings: liver microsomes, time < 65 min, read-out: CLH
# [26] = Acute toxicity in ICR mouse assessed as animal survival at 375 mg/kg, ip measured for 2 weeks; type: organism-based; settings: in vivo
# [27] = Acute toxicity in ip dosed ICR mouse assessed as change in routine blood analysis at 200 mg/kg, ip measured for 2 weeks; type: organism-based; settings: in vivo, 336 h
# JeKo-1 [28] = test: Antitumor activity against human JeKo-1 cells xenografted NOD/SCID mouse assessed as tumor growth inhibition at 25 mg/kg, ip measured for 16 days; type: functional; settings: JeKo-1, 384 h, time 16 day, read-out: TGI
# MV4-11 [29] = test: Antitumor activity against human MV4-11 cells xenografted in NOD/SCID mouse assessed as tumor growth inhibition at 10 mg/kg ip administered once daily for 21 days; type: functional; settings: MV4-11, 504 h, time 21 day, read-out: TGI
# MV4-11 [30] = test: Antitumor activity against human MV4-11 cells xenografted NOD/SCID mouse assessed as reduction in tumor weight at 20 mg/kg, ip administered once daily for 21 days; type: functional; settings: time 21 day
# MV4-11 [31] = test: Antitumor activity against human MV4-11 cells xenografted NOD/SCID mouse assessed as increase in tumor necrotic cells at 10 mg/kg, ip administered once daily for 21 days by H and E staining analysis; type: functional, organism-based; settings: time 21.0 day
# MV4-11 [32] = test: Antitumor activity against human MV4-11 cells xenografted NOD/SCID mouse assessed as increase in tumor necrotic cells at 20 mg/kg, ip administered once daily for 21 days by H and E staining analysis; type: functional, organism-based; settings: time 21.0 day
# JeKo-1 [33] = test: cells; settings: Homo sapiens, JeKo-1, 72 h
# Description: Antiproliferative activity against human JeKo-1 cells assessed as inhibition of cell growth incubated for 72 hrs by CCK8 assay
# in vitro = settings: human, Caco-2
# Description: Apparent permeability across basolateral to apical side in human Caco-2 cells incubated for 120 mins by LC-MS/MS analysis
# P-glycoprotein = test: in vitro; settings: human, Caco-2
# Description: Efflux ratio of apparent permeability across basolateral to apical side over apical to basolateral side in human Caco-2 cells incubated for 120 mins in presence of P-glycoprotein by LC-MS/MS analysis
compound,measurement,setting,value
CN1CCN(c2ccc(Nc3ncc(F)c(Nc4ccccc4C(=O)NN)n3)cc2)CC1,inhibition,[1],62%
same,inhibition,[2],79%
same,inhibition,[3],-10%
same,inhibition,[4],-1%
same,inhibition,[5],8%
same,inhibition,[6],100%
same,inhibition,[7],67%
same,inhibition,[8],27%
same,inhibition,[9],17%
same,inhibition,[10],6%
same,inhibition,[11],-7%
same,inhibition,[12],7%
same,inhibition,[13],43%
same,inhibition,[14],26%
same,Ratio IC50,JeKo-1 [15],8
same,Ratio IC50,MV4-11 [16],8
same,Ratio IC50,MOLT-4,8
same,Ratio IC50,JeKo-1 [17],1.3
same,inhibition,[18],Dose-Dependent Effect
same,viability at 0.03 µM,JeKo-1 [19],87.5%
same,Activity,JeKo-1 [20],1.65%
same,Activity,JeKo-1 [21],0.37%
same,viability at 0.75 µM,JeKo-1 [22],61.5%
same,Activity,JeKo-1 [23],Active
same,Activity,JeKo-1 [24],Dose-Dependent Effect
same,CLint scaled,[25],30.1 mL/min/kg
same,survival at 336 h,[26],40%
same,Activity,[27],Non-Toxic
same,inhibition in vivo at 25 mg/kg,JeKo-1 [28],67%
same,inhibition in vivo at 10 mg/kg,MV4-11 [29],74.2%
same,Activity,MV4-11 [30],0.08 g
same,Activity,MV4-11 [31],Active
same,Activity,MV4-11 [32],Active
same,IC50,JeKo-1 [33],17 nM
same,Papp B→A at 2 h,in vitro,13.5 ×10⁻⁶ cm/s
same,efflux ratio at 2 h,P-glycoprotein,2.64
